Patent US10577353B2, “5-(n-[6,5]-fused bicyclic aryl tetrahydroisoquinolin-6-yl) pyridin-3-yl acetic acid derivatives as inhibitors of human immunodeficiency virus replication” (priority 2015, dated 2020)

System: recombinant NL-RLuc virus (NL4-3 derived HIV)
Test: Inhibition of HIV replication (NL-RLuc virus in MT-2 cells, luciferase readout)
Assay type: cell-based
Conditions: Human immunodeficiency virus 1, NL43, MT2, 120 h
Excerpt: Inhibition of HIV Replication:
A recombinant NL-RLuc proviral clone was constructed in which a section of the nef gene from NL4-3 was replaced with the Renilla Luciferase gene. This virus is fully infectious and can undergo multiple cycles of replication in cell culture. In addition, the luciferous reporter provides a simple and easy method for quantitating the extent of virus growth and consequently, the antiviral activity of test compounds. The plasmid pNLRLuc contains the proviral NL-Rluc DNA cloned into pUC 18 at the PvuII site. The NL-RLuc virus was prepared by transfection of 293T cells with the plasmid pNLRLuc. Transfections were performed using the LipofectAMINE PLUS kit from Invitrogen (Carlsbad, Calif.) according to the manufacturer and the virus generated was titered in MT-2 cells. For susceptibility analyses, the titrated virus was used to infect MT-2 cells in the presence of compound, and after 5 days of incubation, cells were processed and quantitated for virus growth by the amount of expressed luciferase. Assay media was RPMI 1640 supplemented with 10% heat inactivated fetal bovine serum (FBS), 100 units/ml penicillin G/100 units/ml streptomycin, 10 mM HEPES buffer pH 7.55 and 2 mM L-glutamine. The results from at least 2 experiments were used to calculate the EC50 values. Luciferase was quantitated using the Dual Luciferase kit from Promega (Madison, Wis.). Susceptibility of viruses to compounds was determined by incubation in the presence of serial dilutions of the compound. The 50% effective concentration (EC50) was calculated by using the exponential form of the median effect equation where (Fa)=1/[1+(ED50/drug conc.)^m] (Johnson V A, Byington R T. Infectivity Assay. In Techniques in HIV Research. ed. Aldovini A, Walker B D. 71-76. New York: Stockton Press. 1990).

Compound: Cc1nc(C)c([C@H](OC(C)(C)C)C(=O)O)c(N2CCC(C)(C)CC2)c1-c1ccc2c(c1)CCN(c1nc3c(Cl)cncc3s1)C2 [Compound 3, (S)-2-(tert-butoxy)-2-(5-(2-(7-chlorothiazolo[5,4-c]pyridin-2-yl)-1,2,3,4-tetrahydroisoquinolin-6-yl)-4-(4,4-dimethylpiperidin-1-yl)-2,6-dimethylpyridin-3-yl)acetic acid]
- EC50: 1 nM

Compound: Cc1ccc2nc(N3CCc4cc(-c5c(C)nc(C)c([C@H](OC(C)(C)C)C(=O)O)c5N5CCC(C)(C)CC5)ccc4C3)sc2c1 [Compound 9, (S)-2-(tert-butoxy)-2-(4-(4,4-dimethylpiperidin-1-yl)-2,6-dimethyl-5-(2-(6-methylbenzo[d]thiazol-2-yl)-1,2,3,4-tetrahydroisoquinolin-6-yl)pyridin-3-yl)acetic acid]
- EC50: 8 nM

Compound: Cc1nc(C)c([C@H](OC(C)(C)C)C(=O)O)c(N2CCC(C)(C)CC2)c1-c1ccc2c(c1)CCN(c1ncnc3cc[nH]c13)C2 [Compound 22, (S)-2-(5-(2-(5H-pyrrolo[3,2-d]pyrimidin-4-yl)-1,2,3,4-tetrahydroisoquinolin-6-yl)-4-(4,4-dimethylpiperidin-1-yl)-2,6-dimethylpyridin-3-yl)-2-(tert-butoxy)acetic acid]
- EC50: 286 nM

Compound: Cc1nc(C)c([C@H](OC(C)(C)C)C(=O)O)c(N2CCC(C)(C)CC2)c1-c1ccc2c(c1)CCN(c1nc3ccccc3s1)C2 [Compound 13, (S)-2-(5-(2-(benzo[d]thiazol-2-yl)-1,2,3,4-tetrahydroisoquinolin-6-yl)-4-(4,4-dimethylpiperidin-1-yl)-2,6-dimethylpyridin-3-yl)-2-(tert-butoxy)acetic acid]
- EC50: 7 nM

Compound: Cc1nc(C)c([C@H](OC(C)(C)C)C(=O)O)c(N2CCC(C)(C)CC2)c1-c1ccc2c(c1)CCN(c1nc3ccc(F)cc3s1)C2 [Compound 8, (S)-2-(tert-butoxy)-2-(4-(4,4-dimethylpiperidin-1-yl)-5-(2-(6-fluorobenzo[d]thiazol-2-yl)-1,2,3,4-tetrahydroisoquinolin-6-yl)-2,6-dimethylpyridin-3-yl)acetic acid]
- EC50: 5 nM

Compound: Cc1nc(C)c([C@H](OC(C)(C)C)C(=O)O)c(N2CCC(C)(C)CC2)c1-c1ccc2c(c1)CCN(c1ncc3cc[nH]c3n1)C2 [Compound 25, (S)-2-(5-(2-(7H-pyrrolo[2,3-d]pyrimidin-2-yl)-1,2,3,4-tetrahydroisoquinolin-6-yl)-4-(4,4-dimethylpiperidin-1-yl)-2,6-dimethylpyridin-3-yl)-2-(tert-butoxy)acetic acid]
- EC50: 4 nM
